Assay results taken from US6737383B1, “Herbicidal oxadiazolidines” (priority 1999, dated 2004).

Assays:
bedstraw = assay: Test B pre/postemergence bedstraw; format: in vivo, Galium aparine
Summary of the method: (§1)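 Herbicidal effect was estimated by eye on a ten-point control scale after plants spent twelve to sixteen days in a greenhouse following soil or foliar treatment. Foliar sprays targeted plants at one to four leaves; all doses were formulated in a non-phytotoxic solvent with surfactant.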

blackgrass = assay: Test B pre/postemergence blackgrass; format: in vivo, Alopecurus myosuroides
Summary of the method: as §1

surinam grass = assay: Test B pre/postemergence surinam grass; format: in vivo, Brachiaria decumbens
Summary of the method: as §1

corn = assay: Test B pre/postemergence corn; format: in vivo, Zea mays
Summary of the method: as §1

crabgrass = assay: Test B pre/postemergence crabgrass; format: in vivo, Digitaria sanguinalis
Summary of the method: as §1

giant foxtail = assay: Test B pre/postemergence giant foxtail; format: in vivo, Setaria faberii
Summary of the method: as §1

morningglory = assay: Test B pre/postemergence morningglory; format: in vivo, Ipomoea hederacea
Summary of the method: as §1

pigweed = assay: Test B pre/postemergence pigweed; format: in vivo, Amaranthus retroflexus
Summary of the method: as §1

rape = assay: Test B pre/postemergence rape; format: in vivo, Brassica napus
Summary of the method: as §1

soybean = assay: Test B pre/postemergence soybean; format: in vivo, Glycine max
Summary of the method: as §1

velvetleaf = assay: Test B pre/postemergence velvetleaf; format: in vivo, Abutilon theophrasti
Summary of the method: as §1

wheat = assay: Test B pre/postemergence wheat; format: in vivo, Triticum aestivum
Summary of the method: as §1

wild oat = assay: Test B pre/postemergence wild oat; format: in vivo, Avena fatua
Summary of the method: as §1

purple nutsedge = assay: Test B pre/postemergence purple nutsedge; format: in vivo, Cyperus rotundus
Summary of the method: as §1

rice = assay: Test B flood test rice; format: in vivo, Oryza sativa
Summary of the method: (§2)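 Flood test on plants grown to the 2-leaf stage; treated plants kept in greenhouse twelve to sixteen days, then visually rated against controls on a 0 (no effect) to 10 (complete control) scale.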

duck salad = assay: Test B flood test duck salad; format: in vivo, Heteranthera limosa
Summary of the method: as §2

[1] = Preemergence, Rate 62 g/ha, scale of 0 to 10 where 0 is no effect and 10 is complete control
[2] = Preemergence, Rate 250 g/ha, scale of 0 to 10 where 0 is no effect and 10 is complete control
[3] = Rate 62 g/ha, Postemergence, scale of 0 to 10 where 0 is no effect and 10 is complete control
[4] = Rate 125 g/ha, Postemergence, scale of 0 to 10 where 0 is no effect and 10 is complete control
[5] = Rate 125 g/ha, Preemergence, scale of 0 to 10 where 0 is no effect and 10 is complete control
[6] = Rate 250 g/ha, Postemergence, scale of 0 to 10 where 0 is no effect and 10 is complete control
[7] = Rate 500 g/ha, Postemergence, scale 0 to 10, 0 no effect, 10 complete control
[8] = Preemergence, Rate 500 g/ha, scale of 0 to 10 where 0 is no effect and 10 is complete control
[9] = Rate 62 g/ha, headed Pre-emergence (flood test species), scale 0 to 10 (0 no effect, 10 complete control)
[10] = Rate 125 g/ha, Pre-emergence, flood test species, scale 0 to 10 where 0 is no effect and 10 is complete control
[11] = Rate 250 g/ha, Pre-emergence, flood-test species, scale 0 to 10, 0 is no effect, 10 is complete control
[12] = Rate 500 g/ha, Pre-emergence, flood test species, scale 0 to 10 (0 no effect, 10 complete control)

## Cc1cccc(C)c1-n1c(=O)on(C(=O)N(C(C)C)C2C=CCCC2)c1=O (stereo not drawn) [Compound 273]
bedstraw; [1]
  Bedstraw plant response rating: 0
bedstraw; [2]
  Bedstraw plant response rating: 0
bedstraw; [3]
  Bedstraw plant response rating: 0
bedstraw; [4]
  Bedstraw plant response rating: 0
bedstraw; [5]
  Bedstraw plant response rating: 0
bedstraw; [6]
  Plant response rating, Bedstraw: 0
bedstraw; [7]
  Bedstraw plant response rating: 0
blackgrass; [1]
  Blackgrass plant response rating: 0
blackgrass; [8]
  Plant response rating, Blackgrass: 0
blackgrass; [3]
  Blackgrass plant response rating: 0
blackgrass; [4]
  Blackgrass plant response rating: 1
blackgrass; [5]
  Blackgrass plant response rating: 0
blackgrass; [6]
  Plant response rating, Blackgrass: 2
blackgrass; [7]
  Blackgrass plant response rating: 4
Surinam grass; [1]
  B. signalgrass plant response rating: 0
Surinam grass; [2]
  B. signalgrass plant response rating: 2
Surinam grass; [8]
  Plant response rating, B. signalgrass: 3
Surinam grass; [3]
  B. signalgrass plant response rating: 0
Surinam grass; [4]
  B. signalgrass plant response rating: 0
Surinam grass; [5]
  B. signalgrass plant response rating: 0
Surinam grass; [6]
  Plant response rating, B. signalgrass: 0
Surinam grass; [7]
  B. signalgrass plant response rating: 0
corn; [1]
  Corn plant response rating: 0
corn; [2]
  Corn plant response rating: 0
corn; [8]
  Plant response rating, Corn: 0
corn; [3]
  Corn plant response rating: 0
corn; [4]
  Corn plant response rating: 0
corn; [5]
  Corn plant response rating: 0
corn; [6]
  Plant response rating, Corn: 0
corn; [7]
  Corn plant response rating: 0
crabgrass; [1]
  Crabgrass plant response rating: 2
crabgrass; [2]
  Crabgrass plant response rating: 6
crabgrass; [8]
  Plant response rating, Crabgrass: 9
crabgrass; [4]
  Crabgrass plant response rating: 0
crabgrass; [5]
  Crabgrass plant response rating: 6
crabgrass; [6]
  Plant response rating, Crabgrass: 1
crabgrass; [7]
  Crabgrass plant response rating: 3
Giant foxtail; [1]
  Giant foxtail plant response rating: 7
Giant foxtail; [2]
  Giant foxtail plant response rating: 8
Giant foxtail; [8]
  Plant response rating, Giant foxtail: 9
Giant foxtail; [4]
  Giant foxtail plant response rating: 0
Giant foxtail; [5]
  Giant foxtail plant response rating: 8
Giant foxtail; [6]
  Plant response rating, Giant foxtail: 0
Giant foxtail; [7]
  Giant foxtail plant response rating: 2
morningglory; [1]
  Morningglory plant response rating: 0
morningglory; [2]
  Morningglory plant response rating: 0
morningglory; [8]
  Plant response rating, Morningglory: 0
morningglory; [4]
  Morningglory plant response rating: 0
morningglory; [5]
  Morningglory plant response rating: 0
morningglory; [6]
  Plant response rating, Morningglory: 2
morningglory; [7]
  Morningglory plant response rating: 3
pigweed; [1]
  Redroot pigweed plant response rating: 0
pigweed; [2]
  Redroot pigweed plant response rating: 0
pigweed; [8]
  Plant response rating, Redroot pigweed: 0
pigweed; [4]
  Redroot pigweed plant response rating: 0
pigweed; [5]
  Redroot pigweed plant response rating: 0
pigweed; [6]
  Plant response rating, Redroot pigweed: 2
pigweed; [7]
  Redroot pigweed plant response rating: 4
rape; [1]
  Rape plant response rating: 0
rape; [2]
  Rape plant response rating: 0
rape; [8]
  Plant response rating, Rape: 0
rape; [4]
  Rape plant response rating: 0
rape; [5]
  Rape plant response rating: 0
rape; [6]
  Plant response rating, Rape: 0
rape; [7]
  Rape plant response rating: 0
soybean; [1]
  Soybean plant response rating: 0
soybean; [2]
  Soybean plant response rating: 0
soybean; [8]
  Plant response rating, Soybean: 0
soybean; [4]
  Soybean plant response rating: 3
soybean; [5]
  Soybean plant response rating: 0
soybean; [6]
  Plant response rating, Soybean: 3
soybean; [7]
  Soybean plant response rating: 4
velvetleaf; [1]
  Velvetleaf plant response rating: 0
velvetleaf; [2]
  Velvetleaf plant response rating: 0
velvetleaf; [8]
  Plant response rating, Velvetleaf: 1
velvetleaf; [4]
  Velvetleaf plant response rating: 0
velvetleaf; [5]
  Velvetleaf plant response rating: 0
velvetleaf; [6]
  Plant response rating, Velvetleaf: 0
velvetleaf; [7]
  Velvetleaf plant response rating: 2
wheat; [1]
  Wheat plant response rating: 0
wheat; [2]
  Wheat plant response rating: 0
wheat; [8]
  Plant response rating, Wheat: 0
wheat; [4]
  Wheat plant response rating: 0
wheat; [5]
  Wheat plant response rating: 0
wheat; [6]
  Plant response rating, Wheat: 0
wheat; [7]
  Wheat plant response rating: 0
Wild oat; [1]
  Wild oats plant response rating: 0
Wild oat; [2]
  Wild oats plant response rating: 0
Wild oat; [8]
  Plant response rating, Wild oats: 3
Wild oat; [4]
  Wild oats plant response rating: 0
Wild oat; [6]
  Plant response rating, Wild oats: 0
Wild oat; [7]
  Wild oats plant response rating: 0
Purple nutsedge; [2]
  Nutsedge plant response rating: 0
Purple nutsedge; [8]
  Plant response rating, Nutsedge: 0
Purple nutsedge; [4]
  Nutsedge plant response rating: 0
Purple nutsedge; [6]
  Plant response rating, Nutsedge: 0
Purple nutsedge; [7]
  Nutsedge plant response rating: 0
rice; [9]
  Rice plant response rating: 0
rice; [10]
  Rice plant response rating: 0
rice; [11]
  Rice plant response rating: 0
rice; [12]
  Rice plant response rating: 0
Duck salad; [9]
  Ducksalad plant response rating: 0
Duck salad; [10]
  Ducksalad plant response rating: 0
Duck salad; [11]
  Ducksalad plant response rating: 0
Duck salad; [12]
  Ducksalad plant response rating: 0
